Measured values from patent US11406619B2, “Injectable formulations” (priority 2020, dated 2022).
Marks after values point to notes of the source that are not given here.

Experiment: HPLC purity/related substances of formulations at preparation and on storage
Conditions: for Total related substances: 2.5 mg/mL in 40 mM B-R buffer
[1] = B-R buffer, nominal pH 7, Day 17 (10 days 40° C., 7 days 50° C.)
[2] = B-R buffer, nominal pH 7 UV light exposure (200 watt hours UVA, 0.6 million luxhours)
[3] = B-R buffer, nominal pH 7.5, Day 17 (10 days 40° C., 7 days 50° C.)
[4] = B-R buffer, nominal pH 8, Day 17 (10 days 40° C., 7 days 50° C.)
[5] = B-R buffer, nominal pH 9, Day 17 (10 days 40° C., 7 days 50° C.)

## DMT fumarate [SPL026]
Nominal pH 5.0, Day 17 (10 days 40° C. then 7 days 50° C.)
  Total related substances: 0.07%
Nominal pH 6.0, Day 17 (10 days 40° C. then 7 days 50° C.)
  Total related substances: 0.09%
Nominal pH 6.5, Day 17 (10 days 40° C. then 7 days 50° C.)
  Total related substances: 0.10%
Nominal pH 7.0, Day 17 (10 days 40° C. then 7 days 50° C.)
  Total related substances: 0.26%
Nominal pH 7.0, on completion of light stressing (200 watt hours UVA, 0.6 million lux hours)
  Total related substances: 1.68^a %
Nominal pH 7.0, on completion of light stressing (200 watt hours UVA, 0.6 million lux hours), listed as DMT fumarate
  Total related substances: 1.68%
Nominal pH 7.0 sparged N2, Day 17 (10 days 40° C. then 7 days 50° C.)
  Total related substances: 0.05%
Nominal pH 7.5, Day 17 (10 days 40° C. then 7 days 50° C.)
  Total related substances: 0.42%
Nominal pH 8.0, Day 17 (10 days 40° C. then 7 days 50° C.)
  Total related substances: 0.58%
Nominal pH 9.0, Day 7 (7 days 40° C.)
  Total related substances: 0.10%
Nominal pH 9.0, Day 17 (10 days 40° C. then 7 days 50° C.)
  Total related substances: 0.61%
B-R buffer, nominal pH 5, Day 17 (10 days 40° C., 7 days 50° C.)
  related substance at RRT 1.56, percentage area of total peak area: 0.07%
B-R buffer, nominal pH 6, Day 17 (10 days 40° C., 7 days 50° C.)
  related substance at RRT 1.56, percentage area of total peak area: 0.09%
B-R buffer, nominal pH 6.5, Day 17 (10 days 40° C., 7 days 50° C.)
  related substance at RRT 1.56, percentage area of total peak area: 0.10%
B-R buffer, nominal pH 6.5 with N2 (sparged with nitrogen), Day 17 (10 days 40° C., 7 days 50° C.)
  related substance at RRT 1.56, percentage area of total peak area: 0.05%
[1]
  related substance at RRT 0.73, percentage area of total peak area: 0.09%
  related substance at RRT 0.91, percentage area of total peak area: 0.05%
  related substance at RRT 1.56, percentage area of total peak area: 0.12%
[2]
  related substance at RRT 0.54, percentage area of total peak area: 0.05%
  related substance at RRT 0.62, percentage area of total peak area: 0.17%
  related substance at RRT 0.64, percentage area of total peak area: 0.54%
  related substance at RRT 0.73, percentage area of total peak area: 0.23%
  related substance at RRT 0.74, percentage area of total peak area: 0.15%
  related substance at RRT 0.77, percentage area of total peak area: 0.06%
  related substance at RRT 0.80, percentage area of total peak area: 0.07%
  related substance at RRT 1.17, percentage area of total peak area: 0.18%
  related substance at RRT 1.20, percentage area of total peak area: 0.13%
  related substance at RRT 1.56, percentage area of total peak area: 0.10%
[3]
  related substance at RRT 0.73, percentage area of total peak area: 0.14%
  related substance at RRT 0.91, percentage area of total peak area: 0.07%
  related substance at RRT 1.11, percentage area of total peak area: 0.12%
  related substance at RRT 1.56, percentage area of total peak area: 0.09%
[4]
  related substance at RRT 0.73, percentage area of total peak area: 0.15%
  related substance at RRT 0.91, percentage area of total peak area: 0.09%
  related substance at RRT 0.95, percentage area of total peak area: 0.05%
  related substance at RRT 1.11, percentage area of total peak area: 0.22%
  related substance at RRT 1.56, percentage area of total peak area: 0.07%
[5]
  related substance at RRT 0.73, percentage area of total peak area: 0.12%
  related substance at RRT 0.91, percentage area of total peak area: 0.11%
  related substance at RRT 1.11, percentage area of total peak area: 0.12%
  related substance at RRT 1.56, percentage area of total peak area: 0.38%
